Reference: ChEMBL document CHEMBL1126454, “Syntheses of new TXA2/PGH2-receptor antagonists and their biological properties” (Bioorg Med Chem Lett, 1992)

Tests used:
[1] = target: T1, Thromboxane A2 receptor (Homo sapiens) (UniProt P21731); assay: Competition factor for Thromboxane A2 (TXA2) / Prostaglandin H2 (PGH2)-receptor was determined by CF=(ID50-test)/(ID50-standard)
T1 sequence (whole entry): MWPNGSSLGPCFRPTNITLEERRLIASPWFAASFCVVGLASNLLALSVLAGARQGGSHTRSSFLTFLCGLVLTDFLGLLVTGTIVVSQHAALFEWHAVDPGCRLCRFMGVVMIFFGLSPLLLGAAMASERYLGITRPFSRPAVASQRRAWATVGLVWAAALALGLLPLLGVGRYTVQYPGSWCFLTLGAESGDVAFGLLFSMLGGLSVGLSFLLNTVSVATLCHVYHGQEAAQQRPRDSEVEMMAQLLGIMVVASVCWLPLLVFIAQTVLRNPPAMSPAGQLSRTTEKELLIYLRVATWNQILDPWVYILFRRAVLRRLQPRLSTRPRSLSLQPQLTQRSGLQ

[2] = target: T1, Thromboxane A2 receptor (Homo sapiens); assay: Competition factor for Thromboxane A2 (TXA2) / Prostaglandin H2 (PGH2)-receptor was determined by CF=(ID50-test)/(ID50-standard); partial agonist; type: functional
[3] = target: T1, Thromboxane A2 receptor (Homo sapiens); assay: Competition factor for Thromboxane A2 (TXA2) / Prostaglandin H2 (PGH2)-receptor was determined by CF=(ID50-test)/(ID50-standard); not parallel
[4] = target: T1, Thromboxane A2 receptor (Homo sapiens); assay: Competition factor for Thromboxane A2 (TXA2) / Prostaglandin H2 (PGH2)-receptor was determined by CF=(ID50-test)/(ID50-standard); agonist; type: functional
[5] = target: T1, Thromboxane A2 receptor (Homo sapiens); assay: Competition factor for Thromboxane A2 (TXA2) / Prostaglandin H2 (PGH2)-receptor was determined by CF=(ID50-test)/(ID50-standard); antagonist; type: functional

SMILES | CF [1] | further results
O=C(O)CCC/C=C/C[C@@H]1[C@@H](/C=C/[C@@H](O)COc2ccc(F)cc2)C2CC1(c1ccc(F)cc1)CO2 (some centres not stated) | 375 | 
CCCCC[C@H](O)/C=C/[C@H]1C2CC(CCc3ccccc3)(CO2)[C@@H]1C/C=C/CCCC(=O)O (some centres not stated) | 420 | 
O=C(O)CCCCCC[C@H]1[C@H](CNS(=O)(=O)c2ccc(Cl)cc2)C2CC1(c1ccc(-c3ccccc3)cc1)CO2 (some centres not stated) | 1.4 | 
O=C(O)CCC/C=C/C[C@H]1[C@H](COCc2ccccc2)C2CC1(c1ccc(F)cc1)CO2 (some centres not stated) | 60 | 
O=C(O)CCC/C=C/C[C@H]1[C@H](COCc2ccccc2)C2CC1(c1ccccc1)CO2 (some centres not stated) | 60 | 
O=C(O)CCC/C=C/C[C@H]1[C@H](/C=C/[C@@H](O)COc2ccc(F)cc2)C2CC1(c1ccc(F)cc1)CO2 (some centres not stated) |  | CF [2]: 2
O=C(O)CCC/C=C/C[C@H]1[C@H](/C=N/Oc2ccc(F)cc2)C2CC1(c1ccc(F)cc1)CO2 (some centres not stated) | 16 | 
O=C(O)CCCCCC[C@H]1[C@H](CNS(=O)(=O)c2ccc(Cl)c(Cl)c2)C2CC1(c1ccc(-c3ccccc3)cc1)CO2 (some centres not stated) | 12 | 
N#Cc1ccc(COC[C@H]2C3CC(c4ccc(F)cc4)(CO3)[C@@H]2C/C=C/CCCC(=O)O)cc1 (some centres not stated) | 900 | 
CCC#CC[C@H](C)[C@H](O)C#C[C@@H]1C2CC(c3ccc(-c4ccccc4)cc3)(CO2)[C@H]1C/C=C/CCCC(=O)O (some centres not stated) |  | CF [2]: 12
CCC#CC[C@H](C)[C@H](O)/C=C/[C@@H]1C2CC(c3ccc(-c4ccccc4)cc3)(CO2)[C@H]1C/C=C/CCCC(=O)O (some centres not stated) |  | CF [2]: 20
Cc1ccc(S(=O)(=O)NC[C@@H]2C3CC(c4ccc(-c5ccccc5)cc4)(CO3)[C@H]2CC=CCCCC(=O)O)cc1 (some centres not stated) |  | CF [3]: 4
CCCCC[C@H](O)/C=C/[C@H]1C2CC(C)(CO2)[C@@H]1C/C=C/CCCC(=O)O (some centres not stated) |  | CF [4]: 320
O=C(O)CCC/C=C\C[C@H]1[C@H](CNS(=O)(=O)c2ccc(Cl)c(Cl)c2)C2CC1(c1ccc(-c3ccccc3)cc1)CO2 (some centres not stated) |  | CF [3]: 4.2
CCCCC[C@H](O)/C=C/[C@H]1C2CC(Cc3ccccc3)(CO2)[C@@H]1C/C=C/CCCC(=O)O (some centres not stated) | 250 | 
CC12COC(C1)[C@H](COCc1ccccc1)[C@H]2C/C=C/CCCC(=O)O (some centres not stated) | > 1000 | 
O=C(O)CCC/C=C/C[C@@H]1[C@@H](COCc2ccccc2)C2CC1(c1ccc(F)cc1)CO2 (some centres not stated) | 125 | 
O=C(O)CCC/C=C/C[C@H]1[C@H](NS(=O)(=O)c2ccc(F)cc2)C2CC1(c1cccc(F)c1)CO2 (some centres not stated) | 250 | 
CCCCC[C@H](O)/C=C/[C@H]1C2CC(c3ccc(F)cc3)(CO2)[C@@H]1C/C=C/CCCC(=O)O (some centres not stated) | 650 | 

SMILES | CF [1] | further results
O=C(O)CCC/C=C/C[C@@H]1[C@@H](COCc2ccccc2)C2CC1(Cc1ccc(-c3ccccc3)cc1)CO2 (some centres not stated) | 800 | 
O=C(O)CCC/C=C/C[C@@H]1[C@@H](COCc2ccccc2)C2CC1(CCc1ccccc1)CO2 (some centres not stated) |  | CF [4]: 750
O=C(O)CCC/C=C\C[C@H]1[C@H](CNS(=O)(=O)c2ccc(Cl)cc2)C2CC1(c1ccc(-c3ccccc3)cc1)CO2 (some centres not stated) |  | CF [3]: 0.4
O=C(O)CCCCC[C@H]1[C@H](CNS(=O)(=O)c2ccc(Cl)cc2)C2CC1(c1ccc(-c3ccccc3)cc1)CO2 (some centres not stated) |  | CF [3]: 0.3
CCCCC[C@H](O)/C=C/[C@@H]1C2CC(c3ccc(F)cc3)(CO2)[C@H]1C/C=C/CCCC(=O)O (some centres not stated) | 25 | 
CCCC#CC12COC(C1)[C@H](COCc1ccccc1)[C@H]2C/C=C/CCCC(=O)O (some centres not stated) | 90 | 
CCC#CC[C@H](C)[C@H](O)C#C[C@@H]1C2CC(c3ccc(F)cc3)(CO2)[C@H]1C/C=C/CCCC(=O)O (some centres not stated) | 4 | 
O=C(O)CCC/C=C/C[C@@H]1[C@@H](COCc2ccccc2)C2CC1(c1ccccc1)CO2 (some centres not stated) | 300 | CF [5]: 300
N#Cc1ccc(COC[C@@H]2C3CC(c4ccc(F)cc4)(CO3)[C@H]2C/C=C/CCCC(=O)O)cc1 (some centres not stated) |  | CF [2]: 6
O=C(O)CCCCC[C@H]1[C@H](CNS(=O)(=O)c2ccc(Cl)c(Cl)c2)C2CC1(c1ccc(-c3ccccc3)cc1)CO2 (some centres not stated) | 5 | CF [3]: 6
O=C(O)CCC/C=C/C[C@H]1C2COC(C2)[C@@H]1COCc1ccccc1 (some centres not stated) | > 1000 | 
O=C(O)CCC/C=C/C[C@@H]1[C@@H](COCc2ccccc2)C2CC1(Cc1ccccc1)CO2 (some centres not stated) | 300 | 
O=C(O)CCC/C=C/C[C@@H]1[C@@H](COCc2ccccc2)C2CC1(C#Cc1ccccc1)CO2 (stereo in doubt; 8a) | 30 | 
O=C(O)CC/C=C\C[C@H]1[C@H](CNS(=O)(=O)c2ccc(Cl)cc2)C2CC1(c1ccc(-c3ccccc3)cc1)CO2 (some centres not stated) |  | CF [3]: 0.1
CCCCC[C@H](O)/C=C/[C@H]1C2CC(CO2)[C@@H]1CC=CCCCC(=O)O (some centres not stated) |  | CF [4]: 36
CCC#CC[C@H](C)[C@H](O)/C=C/[C@@H]1C2CC(c3ccc(F)cc3)(CO2)[C@H]1C/C=C/CCCC(=O)O (some centres not stated) | 26 | 
O=C(O)CCC/C=C/C[C@@H]1[C@@H](COCc2ccccc2)C2CC1(C#Cc1ccccc1)CO2 (stereo in doubt) | 30 | 
O=C(O)CCC/C=C/C[C@H]1[C@H](COCc2ccccc2)C2CC1(C#Cc1ccccc1)CO2 (some centres not stated) | 12 | 
O=C(O)CCC/C=C/C[C@H]1[C@H](/C=N/Oc2ccc(F)cc2)C2CC1(c1cccc(F)c1)CO2 (some centres not stated) | 10 | 

More lines, main results first:

CF [1] | SMILES | further results
2 | Cc1ccc(S(=O)(=O)N[C@@H]2C3CC(c4ccc(-c5ccccc5)cc4)(CO3)[C@H]2C/C=C/CCCC(=O)O)cc1 (some centres not stated) | 
0.05 | Cc1ccc(S(=O)(=O)NC[C@@H]2C3CC(c4ccc(-c5ccccc5)cc4)(CO3)[C@H]2C/C=C\CCC(=O)O)cc1 (some centres not stated) | 
2 | O=C(O)CCC/C=C/C[C@H]1[C@H](NS(=O)(=O)c2ccc(F)cc2)C2CC1(c1ccc(-c3ccccc3)cc1)CO2 (some centres not stated) | 
170 | Cc1ccc(S(=O)(=O)N[C@@H]2C3CC(c4ccc(F)cc4)(CO3)[C@H]2C/C=C/CCCC(=O)O)cc1 (some centres not stated) | 
0.05 | O=C(O)CC/C=C\C[C@H]1[C@H](CNS(=O)(=O)c2ccc(F)cc2)C2CC1(c1ccc(-c3ccccc3)cc1)CO2 (some centres not stated) | 
120 | O=C(O)CCC/C=C/C[C@H]1[C@H](NS(=O)(=O)c2ccc(F)cc2)C2CC1(c1ccc(F)cc1)CO2 (some centres not stated) | 
0.1 | Cc1ccc(S(=O)(=O)NC[C@@H]2C3CC(c4ccc(-c5ccccc5)cc4)(CO3)[C@H]2CCCCCC(=O)O)cc1 (some centres not stated) | 
120 | Cc1ccc(S(=O)(=O)N[C@@H]2C3CC(c4cccc(F)c4)(CO3)[C@H]2C/C=C/CCCC(=O)O)cc1 (some centres not stated) | 
0.1 | O=C(O)CCCCC[C@H]1[C@H](CNS(=O)(=O)c2ccc(F)cc2)C2CC1(c1ccc(-c3ccccc3)cc1)CO2 (some centres not stated) | 
520 | Cc1ccc(S(=O)(=O)N[C@@H]2C3CC(c4ccc(O)cc4)(CO3)[C@H]2C/C=C/CCCC(=O)O)cc1 (some centres not stated) | 
16 | O=C(O)CCC/C=C/C[C@H]1[C@H](/C=N/Oc2ccc(F)cc2)C2CC1(c1ccc(-c3ccccc3)cc1)CO2 (some centres not stated) | 
30 | O=C(O)CCC/C=C/C[C@H]1[C@H](NS(=O)(=O)c2ccc(F)cc2)C2CC1(c1ccc(O)cc1)CO2 (some centres not stated) | 
